Patent publication US20110152089A1, “HERBICIDAL COMPOSITIONS COMPRISING FLUFENACET” (Bayer CropScience AG, priority 2009, published 2011)

Legend:
HORVS [1] = assay: PE application vs pre-sowing application, crop selectivity, greenhouse (Table 3); type: in vivo, Hordeum vulgare, summer barley; conditions: g of AS/ha: (A) 90, (B) 300, (C) 140, (A)+(B)+(C) 90 + 300 + 140
Procedure: (§1) In the standard design of the test, seeds of various broad-leaved weed and weed grass biotypes (origins) were sown in a 8-13 cm diameter pot filled with natural soil of a standard field soil (loamy silt; non-sterile) and covered with a covering soil layer of about 1 cm. The pots were then cultivated in a greenhouse (12-16 h of light, temperature day 20-22° C., night 15-18° C.) until the time of application. The pots were treated on a laboratory track sprayer with spray liquors comprising the compositions according to the invention, mixtures of the prior art or components used individually. Application of the active compounds or active compound combinations formulated as WG, WP, EC or otherwise was carried out at the appropriate growth stages of the plants. The application rate for the spray application was 100-600 l of water/ha. After the treatment, the plants were returned to the greenhouses.
(§2) About 3 weeks after the application, the soil action or/and foliar action was assessed visually according to a scale of 0-100% in comparison to an untreated comparative group: 0%=no noticeable effect compared to the untreated comparative group; 100%=full effect compared to the untreated comparative group.
(§3) (notes: the term “seeds” also includes vegetative propagation forms such as, for example, rhizome pieces; abbreviations used: h light=hours of illumination, g of AS/ha=gram of active substance per hectare, l/ha=liter per hectare, S=sensitive, R=resistant) • 1. Pre-emergence action against weeds: seeds of various broad-leaved weed and weed grass biotypes (origins) were sown in a 8-13 cm diameter pot filled with natural soil of a standard field soil (loamy silt; non-sterile) and covered with a covering soil layer of about 1 cm. The pots were then cultivated in a greenhouse (12-16 h of light, temperature day 20-22° C., night 15-18° C.) until the time of application. The pots were treated at the BBCH stage 00-10 of the seeds/plants on a laboratory track sprayer with spray liquors comprising the compositions according to the invention, mixtures or components used individually, as WG, WP, EC or other formulations. The application rate for the spray application was 100-600 l of water/ha. After the treatment, the plants were returned to the greenhouses and, when required, treated with fertilizer and watered. • 2. Post-emergence action against weeds: seeds of various broad-leaved weed and weed grass biotypes (origins) were sown in a 8-13 cm diameter pot filled with natural soil of a standard field soil (loamy silt; non-sterile) and covered with a covering soil layer of about 1 cm. The pots were then cultivated in a greenhouse (12-16 h of light, temperature day 20-22° C., night 15-18° C.) until the time of application. The pots were treated at various BBCH stages between 11-25 of the seeds/plants, i.e. generally between two to three weeks after the start of the cultivation, on a laboratory track sprayer with spray liquors comprising the compositions according to the invention, mixtures or components used individually, as WG, WP, EC or other formulations. The application rate for the spray application was 100-600 l of water/ha. After the treatment, the plants were returned to the greenhouses and, when required, treated with fertilizer and watered. • 3. Pre-emergence action against weeds with and without incorporation of active compound: seeds of various broad-leaved weed and weed grass biotypes (origins) were sown in a 8-13 cm diameter pot filled with natural soil of a standard field soil (loamy silt; non-sterile). […]

STEME [2] = assay: PE soil application vs incorporation into the soil, greenhouse (Table 1); type: in vivo, Stellaria media; conditions: g of AS/ha: (A) 90, (B) 300, (C) 70, (A)+(B)+(C) 90 + 300 + 70, visual, about 3 weeks after application
Procedure: as §1, §2, §3

AVEFA = assay: PE application with different irrigation, greenhouse (Table 4); type: in vivo, Avena fatua; conditions: g of AS/ha: (A) 90, (B) 300, (C) 140, (A)+(B)+(C) 90 + 300 + 140
Procedure: as §1, §2, §3

HORVS [3] = assay: PO application, crop selectivity, greenhouse (Table 2); type: in vivo, Hordeum vulgare, summer barley; conditions: g of AS/ha: (A) 120, (B) 1200, (C) 140, (A)+(B)+(C) 120 + 1200 + 140, visual, about 3 weeks after application
Procedure: as §1, §2
(§4) (notes: the term “seeds” also includes vegetative propagation forms such as, for example, rhizome pieces; abbreviations used: h light=hours of illumination, g of AS/ha=gram of active substance per hectare, l/ha=liter per hectare, S=sensitive, R=resistant) • 1. Pre-emergence action against weeds: seeds of various broad-leaved weed and weed grass biotypes (origins) were sown in a 8-13 cm diameter pot filled with natural soil of a standard field soil (loamy silt; non-sterile) and covered with a covering soil layer of about 1 cm. The pots were then cultivated in a greenhouse (12-16 h of light, temperature day 20-22° C., night 15-18° C.) until the time of application. […]

POAAN = assay: PO application, greenhouse (Table 2); type: in vivo, Poa annua; conditions: g of AS/ha: (A) 120, (B) 1200, (C) 140, (A)+(B)+(C) 120 + 1200 + 140, visual, about 3 weeks after application
Procedure: as §1, §2, §4

STEME [4] = assay: Activity with different soil types, greenhouse (Table 5); type: in vivo, Stellaria media; conditions: g of AS/ha: (A) 90, (B) 300, (C) 140, (A)+(B)+(C) 90 + 300 + 140
Procedure: as §1, §2, §3

HORVS [5] = assay: Different soil pH, PE application, crop selectivity, greenhouse (Table 8); type: in vivo, Hordeum vulgare, summer barley
Procedure: as §1, §2, §3

HORVS [6] = assay: Different sowing depths, PE application, crop selectivity, greenhouse (Table 7); type: in vivo, Hordeum vulgare, summer barley; conditions: g of AS/ha: (A) 90, (B) 300, (C) 140, (A)+(B)+(C) 90 + 300 + 140
Procedure: as §1, §2, §3

HORVS [7] = assay: Activity with different soil types, crop selectivity, greenhouse (Table 5); type: in vivo, Hordeum vulgare, summer barley; conditions: g of AS/ha: (A) 90, (B) 300, (C) 140, (A)+(B)+(C) 90 + 300 + 140
Procedure: as §1, §2, §3

HORVS [8] = assay: PE application with different irrigation, crop selectivity, greenhouse (Table 4); type: in vivo, Hordeum vulgare, summer barley; conditions: g of AS/ha: (A) 90, (B) 300, (C) 140, (A)+(B)+(C) 90 + 300 + 140
Procedure: as §1, §2, §3

MATCH [9] = assay: Different soil pH, PE application, greenhouse (Table 8); type: in vivo, Matricaria chamomilla
Procedure: as §1, §2, §3

HORVS [10] = assay: PE soil application vs incorporation into the soil, crop selectivity, greenhouse (Table 1); type: in vivo, Hordeum vulgare, summer barley; conditions: g of AS/ha: (A) 90, (B) 300, (C) 70, (A)+(B)+(C) 90 + 300 + 70, visual, about 3 weeks after application
Procedure: as §1, §2, §3

TRZAW = assay: Different soil pH, PE application, crop selectivity, greenhouse (Table 8); type: in vivo, Triticum aestivum, winter wheat
Procedure: as §1, §2, §3

VIOAR = assay: Activity with different soil types, greenhouse (Table 5); type: in vivo, Viola arvensis; conditions: g of AS/ha: (A) 90, (B) 300, (C) 140, (A)+(B)+(C) 90 + 300 + 140
Procedure: as §1, §2, §3

STEME [11] = assay: Resistant biotypes, PE application, greenhouse (Table 6); type: in vivo, Stellaria media; conditions: g of AS/ha: (A) 90, (B) 300, (C) 140, (A)+(B)+(C) 120 + 600 + 140, iodosulfuron 10; for activity STEME resistant: resistant biotype; for activity STEME sensitive: sensitive biotype
Procedure: as §1, §2, §3

MATCH [12] = assay: PE application with different irrigation, greenhouse (Table 4); type: in vivo, Matricaria chamomilla; conditions: g of AS/ha: (A) 90, (B) 300, (C) 140, (A)+(B)+(C) 90 + 300 + 140
Procedure: as §1, §2, §3

[13] = IU soil (loamy silt standard field soil)
[14] = IU/EC73 soil (heavy soil, higher organic substance)
[15] = soil pH 7.4, g of AS/ha: (A) 90, (B) 300, (C) 140, (A)+(B)+(C) 90 + 300 + 140
[16] = soil pH 8.4, g of AS/ha: (A) 90, (B) 300, (C) 140, (A)+(B)+(C) 90 + 300 + 140

CC(C)N(C(=O)COc1nnc(C(F)(F)F)s1)c1ccc(F)cc1 [(A) flufenacet, N-(4-fluorophenyl)-N-(1-methylethyl)-2-[[5-(trifluoromethyl)-1,3,4-thiadiazol-2-yl]oxy]acetamide]
activity HORVS (crop plant) (HORVS [1]; PE application): 20%
activity HORVS (crop plant) (HORVS [1]; application 7 days prior to sowing): 40%
activity STEME (STEME [2]; PE application): 0%
activity STEME (STEME [2]; incorporation into the soil): 20%
activity AVEFA (AVEFA; irrigation from above): 92%
activity AVEFA (AVEFA; irrigation from below): 63%
activity HORVS (crop plant) (HORVS [3]): 40%
activity POAAN (POAAN): 60%
activity STEME IU soil (STEME [4]; [13]): 0%
activity STEME IU/EC73 soil (STEME [4]; [14]): 0%
activity HORVS pH 7.4 (crop plant) (HORVS [5]; [15]): 10%
activity HORVS pH 8.4 (crop plant) (HORVS [5]; [16]): 10%
activity HORVS 5 mm (crop plant) (HORVS [6]; sowing depth 5 mm): 30%
activity HORVS 20 mm (crop plant) (HORVS [6]; sowing depth 20 mm): 20%
activity HORVS IU soil (crop plant) (HORVS [7]; [13]): 10%
activity HORVS IU/EC73 soil (crop plant) (HORVS [7]; [14]): 0%
activity HORVS (crop plant) (HORVS [8]; irrigation from above): 95%
activity HORVS (crop plant) (HORVS [8]; irrigation from below): 80%
activity MATCH pH 7.4 (MATCH [9]; [15]): 5%
activity MATCH pH 8.4 (MATCH [9]; [16]): 0%
activity HORVS (crop plant) (HORVS [10]; PE application): 20%
activity HORVS (crop plant) (HORVS [10]; incorporation into the soil): 60%
activity TRZAW pH 7.4 (crop plant) (TRZAW; [15]): 0%
activity TRZAW pH 8.4 (crop plant) (TRZAW; [16]): 20%
activity VIOAR IU soil (VIOAR; [13]): 0%
activity V18 VIOAR IU/EC73 soil (VIOAR; [14]): 0%
activity STEME resistant (STEME [11]): 0%
activity STEME sensitive (STEME [11]): 0%
activity MATCH (MATCH [12]; irrigation from above): 49%
activity MATCH (MATCH [12]; irrigation from below): 15%

COc1nc(C)nc(NC(=O)NS(=O)(=O)c2cc(I)ccc2C(=O)O)n1 [iodosulfuron]
activity STEME resistant (STEME [11]): 40%
activity STEME sensitive (STEME [11]): 90%
